Assay results: patent US9902702B2, “Spirocycloheptanes as inhibitors of rock” (BRISTOL-MYERS SQUIBB COMPANY, priority 2014, dated 2018)
Structures can show the parent of a compound that is named as a salt.

target: ROCK2 (Homo sapiens, UniProt O75116); assay: ROCK assay: phosphorylation of FITC peptide substrate, LABCHIP 3000 mobility shift; assay type: biochemical; details: 5 μM ATP, 1.5 μM peptide substrate; read-out: ROCK2 Activity (ROCK IC50 range)
Method in brief: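 IC50 values come from curve-fitting percent kinase inhibition across a compound dilution series. The reaction is started with Rho kinase variant in HEPES pH 7.5 buffer with MgCl2, Brij-35 and DTT, with 5 μM ATP, 1.5 μM FITC-labelled peptide and under 2% DMSO. After EDTA quench, product and substrate are separated by microfluidic mobility shift.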

Chain of ROCK2 (O75116 whole entry, species assumed): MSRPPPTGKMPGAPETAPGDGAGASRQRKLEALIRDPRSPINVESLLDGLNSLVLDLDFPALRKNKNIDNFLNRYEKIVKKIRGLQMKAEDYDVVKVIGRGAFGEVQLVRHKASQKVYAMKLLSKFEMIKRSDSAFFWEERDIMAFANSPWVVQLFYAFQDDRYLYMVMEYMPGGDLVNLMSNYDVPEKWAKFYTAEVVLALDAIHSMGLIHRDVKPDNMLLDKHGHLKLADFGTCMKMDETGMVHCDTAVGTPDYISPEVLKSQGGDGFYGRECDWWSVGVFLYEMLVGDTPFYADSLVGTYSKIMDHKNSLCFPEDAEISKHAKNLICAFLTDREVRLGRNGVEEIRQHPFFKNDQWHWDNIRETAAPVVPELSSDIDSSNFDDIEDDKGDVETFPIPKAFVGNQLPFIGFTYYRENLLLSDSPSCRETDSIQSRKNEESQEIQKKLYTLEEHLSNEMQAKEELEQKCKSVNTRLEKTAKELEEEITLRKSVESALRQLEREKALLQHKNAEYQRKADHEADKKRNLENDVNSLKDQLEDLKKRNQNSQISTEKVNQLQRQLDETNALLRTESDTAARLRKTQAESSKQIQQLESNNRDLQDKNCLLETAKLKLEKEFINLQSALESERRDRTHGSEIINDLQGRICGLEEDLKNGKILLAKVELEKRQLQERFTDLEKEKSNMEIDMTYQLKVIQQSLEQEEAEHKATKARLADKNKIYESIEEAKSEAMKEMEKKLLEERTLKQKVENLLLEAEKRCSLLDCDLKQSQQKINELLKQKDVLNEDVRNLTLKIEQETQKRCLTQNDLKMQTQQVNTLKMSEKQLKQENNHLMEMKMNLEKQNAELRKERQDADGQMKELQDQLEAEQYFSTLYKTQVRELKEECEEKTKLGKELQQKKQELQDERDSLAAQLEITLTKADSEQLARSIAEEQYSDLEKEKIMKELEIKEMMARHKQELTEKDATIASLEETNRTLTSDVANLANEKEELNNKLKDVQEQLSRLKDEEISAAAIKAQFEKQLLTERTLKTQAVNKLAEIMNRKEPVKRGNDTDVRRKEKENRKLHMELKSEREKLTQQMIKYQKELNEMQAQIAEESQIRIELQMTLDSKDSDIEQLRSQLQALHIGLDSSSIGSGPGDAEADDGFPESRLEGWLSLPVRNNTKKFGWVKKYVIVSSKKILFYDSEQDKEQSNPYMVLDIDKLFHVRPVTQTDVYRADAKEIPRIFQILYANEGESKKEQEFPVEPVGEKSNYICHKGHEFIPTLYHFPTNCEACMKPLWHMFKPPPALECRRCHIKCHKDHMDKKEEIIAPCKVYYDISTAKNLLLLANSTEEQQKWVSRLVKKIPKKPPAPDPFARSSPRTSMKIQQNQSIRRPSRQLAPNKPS

Compound | IC50 [nM]
[H][C@]1(c2n[nH]c(=O)c3ccccc32)C[C@]2(C[C@@H](NC(=O)c3cn4ccc(Br)cc4n3)C2)C1 (stereo partly drawn) [Example 374, 7-bromo-N-((aR)-6-(4-oxo-3,4-dihydrophthalazin-1-yl)spiro[3.3]heptan-2-yl)imidazo[1,2-a]pyridine-2-carboxamide] | 15.1 to 100
[H][C@]1(c2n[nH]c(=O)c3ccccc32)C[C@]2(C[C@@H](NC(=O)c3nc(-c4ccncc4)sc3C)C2)C1 (stereo partly drawn) [Example 365, 5-methyl-N-((aR)-6-(4-oxo-3,4-dihydrophthalazin-1-yl)spiro[3.3]heptan-2-yl)-2-(pyridin-4-yl)thiazole-4-carboxamide] | 15.1 to 100
Cc1sc(N2CCCC2C(F)(F)F)nc1C(=O)NC1CC2(C1)CC(c1n[nH]c(=O)c3ccccc13)C2 [Example 60, 5-methyl-N-((aR)-6-(4-oxo-3,4-dihydrophthalazin-1-yl)spiro[3.3]heptan-2-yl)-2-((R)-2-(trifluoromethyl)pyrrolidin-1-yl)thiazole-4-carboxamide] | 15.1 to 100
O=C(NC1CC2(C1)CC(c1n[nH]c(=O)c3ccccc13)C2)c1cccc(-c2cn[nH]c2)c1 [Example 339, N-((aR)-6-(4-oxo-3,4-dihydrophthalazin-1-yl)spiro[3.3]heptan-2-yl)-3-(1H-pyrazol-4-yl)benzamide] | 15.1 to 100
[H][C@]1(c2n[nH]c(=O)c3ccccc32)C[C@]2(C[C@@H](NC(=O)c3c(C)nc4ccccn34)C2)C1 (stereo partly drawn) [Example 299, 2-methyl-N-((aR)-6-(4-oxo-3,4-dihydrophthalazin-1-yl)spiro[3.3]heptan-2-yl)imidazo[1,2-a]pyridine-3-carboxamide] | 15.1 to 100
[H][C@]1(c2n[nH]c(=O)c3ccccc32)C[C@]2(C[C@@H](NC(=O)c3cn4ccccc4n3)C2)C1 (stereo partly drawn) [Example 377, N-((aR)-6-(4-oxo-3,4-dihydrophthalazin-1-yl)spiro[3.3]heptan-2-yl)imidazo[1,2-a]pyridine-2-carboxamide] | 15.1 to 100
O=C(Cc1ccc2ccccc2c1)NC1CC2(C1)CC(c1n[nH]c(=O)c3ccccc13)C2 (stereo not drawn) [Example 4, 2-(naphthalen-2-yl)-N-[6-(4-oxo-3,4-dihydrophthalazin-1-yl)spiro[3.3]heptan-2-yl]acetamide] | 100 to 2100
[H][C@]1(c2n[nH]c(=O)c3ccccc32)C[C@]2(C[C@@H](NC(=O)c3ccc(Br)cn3)C2)C1 (stereo partly drawn) [Example 375, 5-bromo-N-((aR)-6-(4-oxo-3,4-dihydrophthalazin-1-yl)spiro[3.3]heptan-2-yl)picolinamide] | 15.1 to 100
N#Cc1ccc2c(C(=O)NC3CC4(C3)CC(c3n[nH]c(=O)c5ccccc35)C4)cnn2c1 (stereo not drawn) [Example 168, 6-cyano-N-((αR)-6-(4-oxo-3,4-dihydrophthalazin-1-yl)spiro[3.3]heptan-2-yl)pyrazolo[1,5-α]pyridine-3-carboxamide] | 15.1 to 100
[H][C@]1(c2n[nH]c(=O)c3ccccc32)C[C@]2(C[C@@H](NC(=O)c3cn4cc(Br)ccc4n3)C2)C1 (stereo partly drawn) [Example 363, 6-bromo-N-((aR)-6-(4-oxo-3,4-dihydrophthalazin-1-yl)spiro[3.3]heptan-2-yl)imidazo[1,2-a]pyridine-2-carboxamide] | 15.1 to 100
[H][C@]1(c2n[nH]c(=O)c3ccccc32)C[C@]2(C[C@@H](NC(=O)C3=C(OCC)C(=O)N(CC(F)(F)F)C3)C2)C1 (stereo partly drawn) [Example 355, 4-ethoxy-5-oxo-N-((aR)-6-(4-oxo-3,4-dihydrophthalazin-1-yl)spiro[3.3]heptan-2-yl)-1-(2,2,2-trifluoroethyl)-2,5-dihydro-1H-pyrrole-3-carboxamide] | 15.1 to 100
COc1ccccc1-n1nnc(C(=O)NC2CC3(C2)CC(c2n[nH]c(=O)c4ccccc24)C3)c1C [Example 117, 1-(2-methoxyphenyl)-5-methyl-N-((aR)-6-(4-oxo-3,4-dihydrophthalazin-1-yl)spiro[3.3]heptan-2-yl)-1H-1,2,3-triazole-4-carboxamide] | 15.1 to 100
O=C(NC1CC2(C1)CC(c1n[nH]c(=O)c3ccccc13)C2)c1ccn(CC2CC2)n1 [Example 23, 1-(cyclopropylmethyl)-N-[(aR)-6-(4-oxo-3,4-dihydrophthalazin-1-yl)spiro[3.3]heptan-2-yl]-1H-pyrazole-3-carboxamide] | 5.1 to 15
Cc1ccn2c(=O)[nH]nc(C3CC4(CC(NC(=O)c5cnn6cc(OCC(C)(C)O)ccc56)C4)C3)c12 (stereo not drawn) [Example 281, 6-(2-hydroxy-2-methylpropoxy)-N-(6-(8-methyl-4-oxo-3,4-dihydropyrrolo[1,2-d][1,2,4]triazin-1-yl)spiro[3.3]heptan-2-yl)pyrazolo[1,5-a]pyridine-3-carboxamide, TFA] | 5.1 to 15
O=C(NC1CC2(C1)CC(c1n[nH]c(=O)c3ccccc13)C2)c1cnn2cc(COCCN3CCOCC3)ccc12 [Example 208, 6-((2-morpholinoethoxy)methyl)-N-((aR)-6-(4-oxo-3,4-dihydrophthalazin-1-yl)spiro[3.3]heptan-2-yl)pyrazolo[1,5-a]pyridine-3-carboxamide] | 2.01 to 5
[H][C@]1(c2n[nH]c(=O)c3ccccc32)C[C@]2(C[C@@H](NC(=O)c3nc(C(C)C)n4ccccc34)C2)C1 (stereo partly drawn) [Example 435, 3-isopropyl-N-((aR)-6-(4-oxo-3,4-dihydrophthalazin-1-yl)spiro[3.3]heptan-2-yl)imidazo[1,5-a]pyridine-1-carboxamide] | 5.1 to 15
[H][C@]1(c2n[nH]c(=O)c3ccccc32)C[C@]2(C[C@@H](NC(=O)c3ccc(Br)cc3)C2)C1 (stereo partly drawn) [Example 331, 4-bromo-N-((aR)-6-(4-oxo-3,4-dihydrophthalazin-1-yl)spiro[3.3]heptan-2-yl)benzamide] | 5.1 to 15
CC(=O)Nc1ccc2c(C(=O)NC3CC4(C3)CC(c3n[nH]c(=O)c5ccccc35)C4)noc2c1 [Example 291, 6-acetamido-N-((aR)-6-(4-oxo-3,4-dihydrophthalazin-1-yl)spiro[3.3]heptan-2-yl)benzo[d]isoxazole-3-carboxamide] | 5.1 to 15
[H][C@]1(c2n[nH]c(=O)c3ccccc32)C[C@]2(C[C@@H](NC(=O)c3cc4ccccc4cn3)C2)C1 (stereo partly drawn) [Example 326, N-((aR)-6-(4-oxo-3,4-dihydrophthalazin-1-yl)spiro[3.3]heptan-2-yl)isoquinoline-3-carboxamide] | 2.01 to 5
O=C(NC1CC2(C1)CC(c1n[nH]c(=O)c3ccccc13)C2)c1cnn2cc(CCCNC3CC3)ccc12 (stereo not drawn) [Example 194] | 5.1 to 15
CC(C)(C)OC(=O)NCCn1cc(C(=O)NC2CC3(C2)CC(c2n[nH]c(=O)c4ccccc24)C3)cn1 [Example 106, tert-butyl (2-(4-(((aR)-6-(4-oxo-3,4-dihydrophthalazin-1-yl)spiro[3.3]heptan-2-yl)carbamoyl)-1H-pyrazol-1-yl)ethyl)carbamate] | 100 to 2100

Second part, the molecule after the results:

IC50 [nM] | Compound
2.01 to 5 | COc1cccc(-c2ccc3c(C(=O)NC4CC5(C4)CC(c4n[nH]c(=O)c6ccccc46)C5)nn(CC(C)(C)O)c3c2)c1 (stereo not drawn) [Example 158, 1-(2-hydroxy-2-methylpropyl)-6-(3-methoxyphenyl)-N-((αR)-6-(4-oxo-3,4-dihydrophthalazin-1-yl)spiro[3.3]heptan-2-yl)-1H-indazole-3-carobxamide]
2.01 to 5 | Cc1sc(N2CC[C@@H](F)C2)nc1C(=O)N[C@H]1CC2(C1)C[C@H](c1n[nH]c(=O)c3ccccc31)C2 (stereo partly drawn) [Example 53, 2-((R)-3-fluoropyrrolidin-1-yl)-5-methyl-N-((aR)-6-(4-oxo-3,4-dihydrophthalazin-1-yl)spiro[3.3]heptan-2-yl)thiazole-4-carboxamide]
0.2 to 2 | [H][C@]1(c2n[nH]c(=O)c3ccccc32)C[C@]2(C[C@@H](NC(=O)c3cnc4cc(-c5ccccc5)ccn34)C2)C1 (stereo partly drawn) [Example 383, N-((aR)-6-(4-oxo-3,4-dihydrophthalazin-1-yl)spiro[3.3]heptan-2-yl)-7-phenylimidazo[1,2-a]pyridine-3-carboxamide]
2.01 to 5 | [H][C@]1(c2n[nH]c(=O)c3ccccc32)C[C@]2(C[C@@H](NC(=O)c3ccc(-c4cnn(C)c4C(F)(F)F)c(F)c3)C2)C1 (stereo partly drawn) [Example 447, 3-fluoro-4-(1-methyl-5-(trifluoromethyl)-1H-pyrazol-4-yl)-N-((aR)-6-(4-oxo-3,4-dihydrophthalazin-1-yl)spiro[3.3]heptan-2-yl)benzamide]
2.01 to 5 | Cn1cc(-c2ccc3c(C(=O)NC4CC5(C4)CC(c4n[nH]c(=O)c6ccccc46)C5)nn(CC(C)(C)O)c3c2)cn1 (stereo not drawn) [Example 147, 1-(2-hydroyx-2-methylpropyl)-6-(1-methyl-1H-pyrazol-4-yl)-N-((αR)-6-(4-oxo-3,4-dihydrophthalazin-1-yl)spiro[3.3]heptan-2-yl)-1H-indazole-3-carboxamide]
0.2 to 2 | O=C(NC1CC2(C1)CC(c1n[nH]c(=O)c3ccccc13)C2)N1CCc2cc(-c3cnn(C4CC4)c3)ccc21 [Example 236, 5-(1-cyclopropyl-1H-pyrazol-4-yl)-N-((aR)-6-(4-oxo-3,4-dihydrophthalazin-1-yl)spiro[3.3]heptan-2-yl)indoline-1-carboxamide]
0.2 to 2 | [2H]C([2H])([2H])n1cc(-c2ccc3c(c2)CCN3C(=O)NC2CC3(C2)CC(c2n[nH]c(=O)c4ccccc24)C3)cn1 [Example 239, 5-(1-(^2H3)methyl-1H-pyrazol-4-yl)-N-((aR)-6-(4-oxo-3,4-dihydrophthalazin-1-yl)spiro[3.3]heptan-2 yl)indoline-1-carboxamide]
0.2 to 2 | O=C(NC1CC2(C1)CC(c1n[nH]c(=O)c3ccccc13)C2)c1cnn2cc(OCC(F)F)ccc12 [Example 80, 6-(2,2-difluoroethoxy)-N-((aR)-6-(4-oxo-3,4-dihydrophthalazin-1-yl)spiro[3.3]heptan-2-yl)pyrazolo[1,5-a]pyridine-3-carboxamide]
0.2 to 2 | [H][C@]1(c2n[nH]c(=O)c3ccccc32)C[C@]2(C[C@@H](NC(=O)c3ccc(-c4cn[nH]c4)c(C)c3)C2)C1 (stereo partly drawn) [Example 418, 3-methyl-N-((aR)-6-(4-oxo-3,4-dihydrophthalazin-1-yl)spiro[3,3]heptan-2-yl)-4-(1H-pyrazol-4-yl)benzamide]
